# According to US20240423215A1, “COMPOSITION FOR COATING PLANT SEED” (priority 2022, published 2024):
# What was measured:
# Type in all cases: in vivo
# [1] = test system: Zea mays; assay: Field test of Zea mays, ear yield (Example 8); conditions: 0.25 g tryptophan and/or 75 g GSSG per ton of seeds
# Procedure: As a control group, seeds without coating were prepared.
# • Location: the Wilderen MAR field, the Kingdom of Belgium • Variety: Like IT • Date of seeding: Apr.
# Cultivation was performed in accordance with the conventional fertilization management technique and pest management technique, and the yield was inspected. • Inspection of yield: 120 strains/group; the number of repetition: 4
# [2] = test system: Zea mays; assay: Cultivation of Zea mays from seeds coated with tryptophan and reduced glutathione under non-stress conditions (Comparative Example 1); conditions: 3 weeks after seeding, Trp 0.225 g and/or GSH 1-75 g per MT-seeds, FIG. 14
# Procedure: Dent corn seeds (100 g; the variety: Snow-dent “Otoha”) were coated with 800 μl of a coating solution containing 0.225 g of tryptophan per ton of seeds (i.e., MT-seeds), 0, 1, 5, 15, or 75 g of reduced glutathione per MT-seeds, polyvinyl alcohol, and a coloring dye in water using a coater (SATEC).
# Culture soil was filled into 12-cm vinyl pots, and the coated dent corn seeds were seeded at 4 grains/pot. After germination, a differently grown strain was thinned to retain 3 strains in a pot. Cultivation was performed in a glass greenhouse, and inspection was performed 21 days after seeding. The fresh weight of the aboveground part was measured. The test was repeated 6 times, and the average was determined.
# [3] = test system: rice; assay: Cultivation of rice from coated seeds under non-stress conditions (Example 7); conditions: 3 weeks after seeding
# Procedure: Rice seeds (100 g; the variety: Emimaru) were coated with 800 μl of a coating solution containing tryptophan, oxidized glutathione, polyvinyl alcohol, and a coloring dye in water using a coater (SATEC). Coating was performed using either or both of tryptophan in an amount of 0 g, 2.25 g, or 5 g and oxidized glutathione in an amount of 0 g or 75 g per ton of seeds.
# Culture soil was filled into 12-cm vinyl pots, and the coated rice seeds were seeded at 5 grains/pot. Cultivation was performed in a glass greenhouse, and the fresh weight of the aboveground part was inspected 21 days after seeding. The test was repeated 6 times, and the average was determined.
# (§1) The measured fresh weight of the aboveground part of plants in groups each treated with different amounts of tryptophan and oxidized glutathione was indicated as the rate of change (%), relative to the fresh weight of the aboveground part of plants in the test group (control group) treated with a coating solution not containing tryptophan or oxidized glutathione.
# [4] = test system: soybean; assay: Cultivation of soybean from coated seeds under salt stress conditions (Example 6); conditions: 3 weeks after seeding, fresh weight of aboveground part
# Procedure: Soybean seeds (100 g; the variety: Fukuyutaka) were coated with 800 μl of a coating solution containing tryptophan, oxidized glutathione, polyvinyl alcohol, and a coloring dye in water using a coater (SATEC). Coating was performed using either or both of tryptophan in an amount of 0 g, 0.045 g, 0.225 g, 0.45 g, or 5 g and oxidized glutathione in an amount of 0 g, 15 g, or 75 g per ton of seeds.
# Culture soil containing sodium chloride at 1.0 g/l of the soil was filled into 7.5-cm pots, and the coated soybean seeds were seeded at 1 grain/pot. Cultivation was performed in a glass greenhouse, and inspection was performed 21 days after seeding. The fresh weight of the aboveground part, the density (the fresh weight of the aboveground part/the height), and the dry weight of the underground part were measured. The test was repeated 9 times, and the average was determined.
# as §1, with “glutathione. […]” for “glutathione.”
# [5] = test system: wheat; assay: Cultivation of wheat from coated seeds under non-stress conditions (Example 3); conditions: 2 weeks after seeding, fresh weight of aboveground part
# Procedure: Wheat seeds (100 g, Quintus) were coated with 800 μl of a coating solution containing tryptophan, oxidized glutathione, polyvinyl alcohol, and a coloring dye in water using a coater (SATEC). Coating was performed using either or both of tryptophan in an amount of 0 g, 0.01 g, 0.25 g, 5 g, or 10 g and oxidized glutathione in an amount of 0 g, 6 g, or 300 g per ton of seeds.
# Culture soil was filled into a 96-well cell tray, the coated wheat seeds were seeded at 1 grain/cell, and inspection was performed 2 weeks after seeding. The height and the fresh weight of the aboveground part were measured, and the density (the fresh weight of the aboveground part/the height) was determined. Groups each consisting of 6 plants were subjected to the test, and the test was repeated 4 times.
# as §1
# The density (the fresh weight of the aboveground part/the height) of the test groups was indicated as the rate of change (%), relative to the density of the control group.
# [6] = test system: wheat; assay: Cultivation of wheat from coated seeds under salt stress conditions (Example 4); conditions: fresh weight of aboveground part
# Procedure: Wheat seeds (100 g; the variety: Yumechikara) were coated with 800 μl of a coating solution containing tryptophan, oxidized glutathione, polyvinyl alcohol, and a coloring dye in water using a coater (SATEC). Coating was performed using either or both of tryptophan in an amount of 0 g, 0.225 g, 2.25 g, 5 g, 10 g, or 50 g and oxidized glutathione in an amount of 0 g, 15 g, or 300 g per ton of seeds.
# Culture soil containing sodium chloride at 4.0 g/l of the soil was filled into 7.5-cm pots, and the coated wheat seeds were seeded at 1 grain/pot. Cultivation was performed in a glass greenhouse, and inspection was performed 16 days after seeding. The height and the fresh weight of the aboveground part were measured, and the density (the fresh weight of the aboveground part/the height) was determined. The test was repeated 9 times, and the average was determined.
# as §1, with “glutathione. […]” for “glutathione.”
# [7] = test system: wheat; assay: Cultivation of wheat from coated seeds under low-temperature stress conditions (Example 9); conditions: 6 weeks after seeding
# Procedure: Wheat seeds (100 g; the variety: Yumechikara) were coated with 800 μl of a coating solution containing tryptophan, oxidized glutathione, polyvinyl alcohol, and a coloring dye in water using a coater (SATEC). Coating was performed using either or both of 5 g of tryptophan per MT-seeds and 75 g of oxidized glutathione per MT-seeds. Culture soil was filled into 7.5-cm pots, and the coated wheat seeds were seeded at 1 grain/pot. Cultivation was performed in a glass greenhouse before germination, the germinated plants were transferred to and cultivated in an artificial climate chamber with a diurnal period of 12 hours set at 10° C. and a nocturnal period of 12 hours set at 5° C., and inspection was performed 6 weeks after seeding. The dry weight of the aboveground part and the dry weight of the underground part were measured. The test was repeated 8 times, and the average was determined.
# In the table, “%” indicates a value calculated relative to the weight without treatment, which is designated as 100%. […] With the use of glutathione in combination with tryptophan, in addition, the dry weight of the aboveground part was increased by 17% and the dry weight of the underground part was increased by 24%, relative to the control group. Such increase was significant. […] As described above, use of glutathione in combination with tryptophan would exert effects of promoting the healthy growth under low-temperature stress conditions.
# [8] = test system: Zea mays; assay: Cultivation of Zea mays from coated seeds under non-stress conditions (Example 1); conditions: 3 weeks after seeding
# Procedure: Dent corn seeds (100 g; the variety: Snow-dent “Otoha”) were coated with 800 μl of a coating solution containing tryptophan, oxidized glutathione, polyvinyl alcohol, and a coloring dye in water using a coater (SATEC). Coating was performed using either or both of tryptophan in an amount of 0 g, 0.045 g, 0.1225 g, 0.45 g, 5 g, or 50 g and oxidized glutathione in an amount of 0 g, 3 g, 15 g, 150 g, or 300 g per ton of seeds.
# Culture soil was filled into 12-cm vinyl pots, and the coated dent corn seeds were seeded at 4 grains/pot. After germination, a differently grown strain was thinned to retain 3 strains in a pot. Cultivation was performed in a glass greenhouse, and inspection was performed 21 days after seeding. The height and the fresh weight of the aboveground part were measured, and the density (the fresh weight of the aboveground part/the height) was determined. The test was repeated 6 times, and the average was determined.
# as §1, with “glutathione. […]” for “glutathione.”
# [9] = test system: Zea mays; assay: Cultivation of Zea mays from coated seeds under salt stress conditions (Example 2); conditions: 3 weeks after seeding, fresh weight of aboveground part
# Procedure: Dent corn seeds (100 g; the variety: Snow-dent “Otoha”) were coated with 800 μl of a coating solution containing tryptophan, oxidized glutathione, polyvinyl alcohol, and a coloring dye in water using a coater (SATEC). Coating was performed using either or both of tryptophan in an amount of 0 g, 0.009 g, 0.045 g, 0.1225 g, 0.225 g, 0.45 g, or 5 g and oxidized glutathione in an amount of 0 g, 15 g, or 75 g per ton of seeds.
# Culture soil containing sodium chloride at 6.0 g/l of the soil was filled into 7.5-cm pots, and the coated dent corn seeds were seeded at 1 grain/pot. Cultivation was performed in a glass greenhouse, and inspection was performed 21 days after seeding. The height, the fresh weight of the aboveground part, and the number of leaves were measured, and the density (the fresh weight of the aboveground part/the height) was determined. The test was repeated 9 times, and the average was determined.
# The rates of changes (%) in the height, the number of leaves, the fresh weight of the aboveground part, and the density (the fresh weight of the aboveground part/the height) measured or determined for the test groups, relative to those of the control group were determined.
# [10] = test system: Zea mays; assay: Cultivation of Zea mays from seeds coated with tryptophan and reduced glutathione under salt stress conditions (Comparative Example 2); conditions: salt stress (NaCl 6.0 g/l soil); 3 weeks after seeding; Trp 0.225 g and/or GSH 1-75 g per MT-seeds; FIG. 15
# Procedure: Dent corn seeds (100 g; the variety: Snow-dent “Otoha”) were coated with 800 μl of a coating solution containing 0.225 g of tryptophan per MT-seeds, 0, 1, 5, 15, or 75 g of reduced glutathione per MT-seeds, polyvinyl alcohol, and a coloring dye in water using a coater (SATEC).
# Culture soil containing sodium chloride at 6.0 g/l of the soil was filled into 7.5-cm pots, and the coated dent corn seeds were seeded at 1 grain/pot. Cultivation was performed in a glass greenhouse, and inspection was performed 21 days after seeding. The fresh weight of the aboveground part was measured. The test was repeated 9 times, and the average was determined.
# The fresh weight of the aboveground part measured for the test groups treated with different amounts of tryptophan and reduced glutathione was indicated as the rate of change (%), relative to that of the test group (the control group) treated with a coating solution not containing tryptophan or reduced glutathione.
# [11] = low-temperature stress (10° C./5° C.), Trp 5 g and/or GSSG 75 g per MT-seeds
# [12] = low-temperature stress, Trp 5 g and/or GSSG 75 g per MT-seeds
smiles,measurement,setting,value
"N[C@@H](Cc1c[nH]c2ccccc12)C(=O)O [tryptophan, L-tryptophan]",ear yield relative to the control group without coating (100%),[1]; FIG. 16,100.4%
same,increase in the ear yield,[1]; relative to control group,An increase was not observed in the yield
same,rate of change in the fresh weight of the aboveground part relative to control group,[2],4%
same,effects of promoting the initial growth,[3],Effects of promoting the initial growth were attained to some extent
same,effects of promoting the initial growth,[4],No effects of promoting the initial growth were attained
same,effects of promoting the initial growth,[5],No effects of promoting the initial growth were attained
same,effects of promoting the initial growth,[6],No effects of promoting the initial growth were attained
same,Dry weight of aboveground part,[7]; [11],0.24 g
same,Dry weight of underground part,[7]; [11],0.08 g
same,effects of promoting the initial growth,[7]; low-temperature stress,not observed
same,"Dry weight of aboveground part, relative to without treatment (100%)",[7]; [12],97%
same,"Dry weight of underground part, relative to without treatment (100%)",[7]; [12],101%
same,increase in the fresh weight of the aboveground part compared with no treatment,[8]; either or both of 0.1225 g tryptophan and 150 g GSSG per ton of seeds,3%
same,effects of promoting the initial growth,[8]; fresh weight of aboveground part,No effects of promoting the initial growth were attained
same,effects of promoting the initial growth,[9],No effects of promoting the initial growth were attained
same,rate of change in the fresh weight of the aboveground part relative to control group,[10],1%
